Experimental data from patent US9771331B2, “Methods of identifying neuroprotective compounds for retinal ganglion cells” (THE JOHNS HOPKINS UNIVERSITY, priority 2005, dated 2017).
“Also recorded” adds a separate entry of the source.

What was measured:
[1] = system: retinal ganglion cells (RGCs); assay: High-content neurite outgrowth screen of purified retinal ganglion cell cultures (number of outgrowth neurons); type: cell-based, rat; conditions: for activity compared with TPAO / activity of compounds similar to TPAO: 4 different concentrations; for number of outgrowth neurons: 50 ng/ml, 120 hours, versus cultures grown in medium only
Procedure: Retinal ganglion cell harvest and immunopurification are performed as described above and in the specific Examples, below. A concentration range of neuroprotective compounds to be validated is prepared and added to test wells (e.g., to achieve final concentrations of 3 μM, 10 μM, 15 μM, 30 μM, 60 μM, 90 μM, 120 μM, and 150 μM in 1% DMSO in each well). For a neuroprotective compound obtained from the […]™ library, for example, 1 mg of desiccated compound can be resuspended in 22.2 μl of DMSO to a final stock solution of 150 mM. […] Afterwards, the solution can be stored in the dark at −20° C.
Neuroprotective compounds and positive control factors are added to the appropriate wells of a 96-well plate (e.g., 25 μl to each well in a 5× concentration prior to the seeding cells in a volume of 100 μl giving a final volume of 125 μl). Cells are incubated, stained, and imaged as described above and in the specific Examples, below. Experiments preferably are performed in duplicate. Following normalization to a negative control (e.g., a well containing medium only), a dose response curve can be plotted. Statistical software (e.g., from SPSS) can be used to perform curve fitting and analysis.
An efficient two-step immunomagnetic purification of a mixed cell population obtained from postnatal rat retina is used to provide a highly enriched population of RGCs for culture. The first step is an immunomagnetic depletion of […] non-RCGS using a cd11b/c. The second step is an immunomagnetic selection of RGCs with an antibody that binds Thy1 on the RGC cell surface. The cells are then released from the magnetic beads by digesting the DNA linker with a low concentration of DNase. Cells are grown on poly-d-lysine/laminin coated plastic plates in a basic medium (Neurobasal media, B27 supplement, glutamine, and penicillin/streptomycin).
(§1) The purified Thy-1 immunoreactive cells are resuspended in growth media (Neurobasal media, B27 supplement, 2 mM glutamine, and 1 U/ml penicillin/streptomycin) and quantified using a hematocytometer. Cells are seeded in 100 μl at a density of 4000 cells/well (150/mm^2) in 96 well culture dishes (Falcon) that had been sequentially coated with poly-d-lysine (0.01 mg/ml) and laminin (0.01 μg/μl) (Sigma). Each well either contains 25 μl of media alone or 5× drug or 5×BDNF and forskolin. Final concentrations are: DMSO (1%), drug (20 to 30 μM), BDNF (50 ng/ml) and forskolin (10 μM). Culture dishes are placed in an incubator maintained at 37° C. and 5% CO2. One hour after seeding, a post-seeding viability is determined by staining with Hoechst and TOTO3 and calculating the percent of live cells.
(§2) After 120 hours of incubation, cells are stained with 5 μM Hoechst and 10 μM Calcein AM (Molecular Probes). Calcein AM (Calcein acetoxymethyl), the dye that is used to stain living cells and their neurites, is a green dye that is permeant to living cells. After internalization by cells, the nonfluorescent calcein AM is converted to fluorescent calcein upon hydrolysis of the acetoymethyl ester by intracellular esterases. Cleavage of the AM group occurs spontaneously when calcein AM is suspended in aqueous solution resulting in a significant increase in background fluorescence over time. TOTO3, which stains the nuclei of dead cells, can be used to determine viability.
Fifteen stereotypic field are autofocus imaged on a Cellomics […]® High Content Scan Reader using epifluorescence and filter sets corresponding to each of the two dyes. This instrument employs a Zeiss fluorescence microscope, a temperature and CO2 live cell chamber, an integrated liquid handling system, and image analysis software that permits staining, imaging, and analysis of the cells and their neurites in approximately 5 hours per plate.

[2] = system: retinal ganglion cells (RGCs); assay: RGCs on glass coverslips in 24-well plates, neurofilament immunostaining, counting neurons with neurite extension; type: cell-based, rat; conditions: neurofilament antibody
Procedure: FIG. 4. […] Immunopurified postnatal rat RGCs were cultured in increasing concentrations of TPAO in the presence of 1% DMSO. […] The effect of TPAO is synergistic with both BDNF and forskolin.
Although the developed technique for performing cell culture is effective and objective, it is desirable to assess the outcome of a screen using a different technique. Thus, for example, the technique of culturing cells on poly d-lysine and laminin coated coverslips in 24 well culture dishes under various culture conditions can be followed by immunostaining with anti-neurofilament antibody and quantitative analysis.
After determination of the dose response relationship and concentration at which the neuroprotective compound has it is maximal effect in culture, cells can be cultured on poly d-lysine and laminin coated cover slips (BD Pharmingen) in the presence of the neuroprotective compound, with appropriate positive and negative controls. […]
For example, in one embodiment cells are fixed with 4% paraformaldehyde, washed with PBS, blocked with PBS/0.1% Triton X/20% goat serum, and incubated overnight in PBS/0.1% Triton X/20% goat serum containing 1:100 dilution of rabbit anti-neurofilament (68 kd) antibody (Chemicon). […] The number of cells with neurite outgrowth at 3 different radii is determined (Scholl analysis) and compared using Student t test.

[3] = system: retinal ganglion cells (RGCs); assay: Overall cell survival of cultured RGCs after 120 hours; type: cell-based, rat; conditions: 50 ng/ml
Procedure: as §1, §2
Images are processed using the Cellomics Extended Neurite Outgrowth software program. In the initial image processing, cells are identified on the Hoechst channel and selected based on size such that of clusters of cells may be excluded from analysis. In addition, each nuclei on the Hoechst channel is matched to a calcein-stained cell and counted as a “valid neuron” (i.e., a live cell). Neurons can be further selected based on size in the calcein channel. The Extended Neurite Outgrowth program is used to trace neurites extending from these selected neurons. The mean neurite length, mean neurite count, mean number of branch points, and mean number of crosspoints are determined. In addition, the percent of cells with neurite features (e.g., neurite length, neurite count) surpassing a threshold of one standard deviation above the mean neurite characteristic of a set of reference wells containing cells and growth medium without additional growth factors is determined. The “neurite outgrowth” measurement is based on the combined mean neurite length and mean neurite count.

RGCs = conditions: peptide trophic factors; Meyer-Franke et al. 1995; cited from earlier work

Molecule: CC1(C)CC(=NOC(=O)c2ccccc2)CC(C)(C)N1 [2,2,6,6-tetramethyl-4-piperidinone O-benzoyloxime]
- activity compared with TPAO [1]: less than that of TPAO
- activity of compounds similar to TPAO [1]: showed activity

Molecule: CC1(C)CC(=NNC(N)=S)CC(C)(C)N1 [2,2,6,6-tetramethyl-4-piperidinone thiosemicarbazone]
- activity compared with TPAO [1]: less than that of TPAO
- activity of compounds similar to TPAO [1]: showed activity

Molecule: CC(=O)ON=C1CC(C)(C)NC(C)(C)C1 [TPAO, 2,2,6,6-tetramethyl-4-piperidinone O-acetyloxime]
- effect in combination with BDNF and forskolin [1]: synergistic
- dose dependence of survival/growth of neurite-bearing RGCs ([1]; dose response 3 μM to 150 μM): dose-dependent manner
- activity if the medium was changed at 24 hours ([1]; medium change at 24 hours): lost
- effect on neurons with a neurite extension greater than one cell body in diameter [2]: demonstrated

Molecule: BDNF: peptide trophic factor known to promote RGC survival; positive control
- number of outgrowth neurons [1]: significantly increased; also recorded: Statistically significant increases
- overall cell survival (number of surviving cells) [3]: slight increase in the number of surviving cells that did not reach statistical significance
- concentration of maximal effect on RGCs (RGCs): 10 ng/mL

Molecule: GDF8: BMP-related myostatin/Gdf8 (Growth and differentiation factor 8)
- number of outgrowth neurons [1]: significantly increased; also recorded: Statistically significant increases
- overall cell survival (number of surviving cells) [3]: slight increase in the number of surviving cells that did not reach statistical significance

Molecule: TGFα: growth factor tested at 50 ng/ml on cultured RGCs
- number of outgrowth neurons [1]: No significant change
- overall cell survival (number of surviving cells) [3]: no effect

Molecule: TGFβ1: growth factor tested at 50 ng/ml on cultured RGCs
- number of outgrowth neurons [1]: No significant change
- overall cell survival (number of surviving cells) [3]: no effect

B1: TGFβ2: growth factor tested at 50 ng/ml on cultured RGCs (protein, UniProt P61812 303-414, looked up)
Transforming growth factor …: ALDAAYCFRNVQDNCCLRPLYIDFKRDLGWKWIHEPKGYNANFCAGACPYLWSSDTQHSRVLSLYNTINPEASASPCCVSQDLEPLTILYYIGKTPKIEQLSNMIVKSCKCS
- number of outgrowth neurons [1]: No significant change
- overall cell survival (number of surviving cells) [3]: no effect

B2: CNTF: peptide trophic factor (protein, UniProt P26441 1-200, looked up)
Ciliary neurotrophic factor: MAFTEHSPLTPHRRDLCSRSIWLARKIRSDLTALTESYVKHQGLNKNINLDSADGMPVASTDQWSELTEAERLQENLQAYRTFHVLLARLLEDQQVHFTPTEGDFHQAIHTLLLQVAAFAYQIEELMILLEYKIPRNEADGMPINVGDGGLFEKKLWGLKVLQELSQWTVRSIHDLRFISSHQTGIPARGSHYIANNKKM
- concentration of maximal effect on RGCs (RGCs): 0.1 ng/mL

B3: BMP13: bone morphogenetic protein, member of the TGFβ superfamily (protein, UniProt Q6KF10 336-455, looked up)
Growth/differentiation factor …: TAFASRHGKRHGKKSRLRCSKKPLHVNFKELGWDDWIIAPLEYEAYHCEGVCDFPLRSHLEPTNHAIIQTLMNSMDPGSTPPSCCVPTKLTPISILYIDAGNNVVYKQYEDMVVESCGCR
- number of outgrowth neurons [1]: significantly increased; also recorded: Statistically significant increases
- overall cell survival (number of surviving cells) [3]: no effect
